Literature values as cited in patent US20070269478A1, “METHOD OF PREPARING ACELLULARIZED, BIOCOMPATIBLE, IMPLANTABLE MATERIAL” (priority 2006, published 2007).

Key:
[1] = α-amino acids with acidic side chains
[2] = for pK2: amino group, glutamic acid vs. γ-aminobutyric; for pK5: primary amine basicity, glycine vs. metilamine

| SMILES | pH above which there is an excess of negative charge [1] | pK2 [2] | pK5 [2] |
| --- | --- | --- | --- |
| N[C@@H](CCC(=O)O)C(=O)O [glutamic acid] | ~4.2 | 9.76 |  |
| NCC(=O)O [glycine] |  |  | 9.60 |
| N[C@@H](CCS(=O)(=O)O)C(=O)O [homocysteic acid] | ~2.2 |  |  |
| CN [metilamine] |  |  | 10.65 |
| NCCCC(=O)O [γ-aminobutyric, 4-aminobutanoic acid] |  | 10.56 |  |
